Assays:
Format in all cases: in vivo, mouse
WT Swiss mice [1] = experiment: Toxicity / safety profile of GLP1 conjugates in WT Swiss mice
Procedure: All animal experiments were performed under an MIT institute approved IACUC protocol following federal, state, and local guidelines for the care and use of animals (protocol number #0821-058-24). The studies were performed on 30-35 g (5-8 weeks-old) healthy female Swiss mice, purchased from The Jackson Laboratory (MA, USA). Mice were housed with free access to food and water ad libitum unless stated otherwise for the need of the experiment. […] Intraperitoneal injections (IP) were performed on vigil mice, in the lower right abdominal quadrant. For blood collection, mice were either punctured in the heart (terminal procedure), or gently pressed at the tail following tail pricks (vigil). […] The animals were sacrificed by CO2 inhalation followed by cervical dislocation. All compounds injected in mice were either USP grade, sterile, or filtered using 0.22 μm.
(§1) Six hours before the Ip-GTT, the mice were fasted by removing the food, the enrichment, and by placing them in a new cage to avoid coprophagy. Access to water was, however kept free and ad libitum for the entire experiment. Five minutes before the Ip-GTT, basal glycemia was measured by taking a small drop of blood using tail pricks.
In the other cohorts, 2a,3a was SC administered following either 10 mg/kg (25 nmol), 30 mg/kg (75 nmol), or three injections of 10 mg/kg, 1 per week for 3 weeks (30 mg/kg total, 75 nmol total).
(§2) All animal experiments were performed under an MIT institute approved IACUC protocol following federal, state, and local guidelines for the care and use of animals (protocol number #0821-058-24). The studies were performed either on 35-45 g (12-16 weeks-old) wild-type female Swiss mice, 25-30 g (14-20 weeks-old) male and female C57BL/6J mice, or 55-70 g (16 weeks-old) male and female obese Lep^ob/ob mice, all purchased from The Jackson Laboratory (MA, USA). Mice were housed with free access to normal food diet and water ad libitum unless stated otherwise for the need of the experiment. […] Intraperitoneal injections (IP) were performed on non-anesthetized mice, in the lower right abdominal quadrant. Blood collection for the ELISA assays and biodistributions was performed as a terminal procedure by heart puncture immediately after the sacrifice. For Ip-GTT and Ip-ITT mice were restrained and gently pressed at the tail following tail pricks. The animals were sacrificed by CO2 inhalation followed by cervical dislocation. All compounds injected in mice were either USP grade, sterile, or filtered using 0.22 μm.

Lep^ob/ob mice = experiment: Safety profile of GLP-1a conjugates in Lep^ob/ob mice; details: 10 mg/kg; for Number of mice showing significant aggressiveness / Number of mice with Piloerection, Moderate: cohort of 3 mice
Procedure: In Lep^ob/ob obese mice, two routes were assessed for the 10 mg/kg dose: SC and IP (Table 21). […] Investigations about the PD of 2a,3a following SC injection of 10 mg/kg were pursued in both mice models.
as §2

WT Swiss mice [2] = experiment: Intraperitoneal glucose tolerance test (Ip-GTT) in WT Swiss mice; details: Ip-GTT after injection
Procedure: as §1

## CC[C@H](C)[C@H](NC(=O)[C@H](Cc1ccccc1)NC(=O)[C@H](CCC(=O)O)NC(=O)[C@H](CCCCNC(=O)COCCOCCNC(=O)COCCOCCNC(=O)CC[C@H](NC(=O)CCCCCCCCCCCCCCCCC(=O)O)C(=O)O)NC(=O)[C@H](C)NC(=O)[C@H](C)NC(=O)[C@H](CCC(N)=O)NC(=O)CNC(=O)[C@H](CCC(=O)O)NC(=O)[C@H](CC(C)C)NC(=O)[C@H](Cc1ccc(O)cc1)NC(=O)[C@H](CO)NC(=O)[C@H](CO)NC(=O)[C@@H](NC(=O)[C@H](CC(=O)O)NC(=O)[C@H](CO)NC(=O)[C@@H](NC(=O)[C@H](Cc1ccccc1)NC(=O)[C@@H](NC(=O)CNC(=O)[C@H](CCC(=O)O)NC(=O)C(C)(C)NC(=O)[C@@H](N)Cc1cnc[nH]1)[C@@H](C)O)[C@@H](C)O)C(C)C)C(=O)N[C@@H](C)C(=O)N[C@@H](Cc1c[nH]c2ccccc12)C(=O)N[C@@H](CC(C)C)C(=O)N[C@H](C(=O)N[C@@H](CCCNC(=N)N)C(=O)NCC(=O)N[C@@H](CCCNC(=N)N)C(=O)NCC(=O)O)C(C)C [Semaglutide]
WT Swiss mice [1]; SC 0.5 mg/kg, cohort of 5 mice
  Number of mice with Aggressiveness: 0
  Number of mice with Piloerection Mild: 0
  Number of mice with Piloerection Severe: 0
  Number of mice with Piloerection, Moderate: 0
WT Swiss mice [1]; SC 3 mg/kg, cohort of 5 mice
  Number of mice with Piloerection Mild: 0
WT Swiss mice [1]; SC 10 mg/kg, cohort of 15 mice
  Number of mice with Piloerection Mild: 0
WT Swiss mice [1]; SC 10 mg/kg, cohort of 15 mice, time per cell footnote (¤ over 48 h)
  Number of mice with Piloerection, Moderate: 0
Lep^ob/ob mice; Lep^ob/ob obese mice
  Tolerability, both routes (SC and IP): significantly impact the mice behavior and induce hypoglycemia
Lep^ob/ob mice; female Lep^ob/ob mice, IP
  Mean fasting blood glucose: 104 ± 6 mg/dL
  Number of mice showing significant aggressiveness: 3
Lep^ob/ob mice; female Lep^ob/ob mice, SC
  Mean fasting blood glucose: 97 ± 7 mg/dL
  Number of mice showing significant aggressiveness: 3
  Number of mice with Piloerection, Moderate: 3
Lep^ob/ob mice; male Lep^ob/ob mice, IP
  Mean fasting blood glucose: 111 ± 14 mg/dL
  Number of mice showing significant aggressiveness: 3
Lep^ob/ob mice; male Lep^ob/ob mice, SC
  Mean fasting blood glucose: 75 ± 12 mg/dL
  Number of mice showing significant aggressiveness: 3
  Number of mice with Piloerection, Moderate: 3
WT Swiss mice [2]
  Hypoglycemia: induce hypoglycemia
